Results: ChEMBL document CHEMBL4308841, “Synthesis, in vitro antiproliferative activity, and kinase inhibitory effects of pyrazole-containing diarylureas and diarylamides” (Eur J Med Chem, 2018)

Assays:
CCRF-CEM = test: Growth inhibition of human CCRF-CEM cells incubated for 48 hrs by sulforhodamine B assay; type: functional, cell-based
K562 = test: Growth inhibition of human K562 cells incubated for 48 hrs by sulforhodamine B assay; type: functional, cell-based; conditions: K562, 48 h
NCI-H460 [1] = test: Growth inhibition of human NCI-H460 cells incubated for 48 hrs by sulforhodamine B assay; type: functional, cell-based; conditions: NCI-H460, 48 h
KM12 = test: Growth inhibition of human KM12 cells incubated for 48 hrs by sulforhodamine B assay; type: functional, cell-based; conditions: KM12, 48 h
Malme-3M = test: Growth inhibition of human MALME-3M cells incubated for 48 hrs by sulforhodamine B assay; type: functional, cell-based
UACC-62 [2] = test: Growth inhibition of human UACC62 cells incubated for 48 hrs by sulforhodamine B assay; type: functional, cell-based; conditions: UACC-62, 48 h
PC-3 = test: Growth inhibition of human PC3 cells incubated for 48 hrs by sulforhodamine B assay; type: functional, cell-based; conditions: PC-3, 48 h
OVCAR-4 [3] = test: Growth inhibition of human OVCAR4 cells assessed as cell growth at 0.01 uM incubated for 48 hrs by sulforhodamine B assay relative to control; type: functional; conditions: OVCAR-4, 48 h, read-out: Activity
HL-60(TB) = test: Growth inhibition of human HL-60(TB) cells assessed as cell growth at 0.1 uM incubated for 48 hrs by sulforhodamine B assay relative to control; type: functional; conditions: HL-60, 48 h, read-out: Activity
NCI-H226 = test: Growth inhibition of human NCI-H226 cells assessed as cell growth at 0.1 uM incubated for 48 hrs by sulforhodamine B assay relative to control; type: functional; conditions: NCI-H226, 48 h, read-out: Activity
NCI-H522 = test: Growth inhibition of human NCI-H522 cells assessed as cell growth at 0.1 uM incubated for 48 hrs by sulforhodamine B assay relative to control; type: functional; conditions: NCI-H522, 48 h, read-out: Activity
HT-29 = test: Growth inhibition of human HT-29 cells assessed as cell growth at 0.1 uM incubated for 48 hrs by sulforhodamine B assay relative to control; type: functional; conditions: HT-29, 48 h, read-out: Activity
M14 = test: Growth inhibition of human M14 cells assessed as cell growth at 0.1 uM incubated for 48 hrs by sulforhodamine B assay relative to control; type: functional; conditions: M14, 48 h, read-out: Activity
MDA-MB-231 = test: Growth inhibition of human MDA-MB-231 cells assessed as cell growth at 0.1 uM incubated for 48 hrs by sulforhodamine B assay relative to control; type: functional; conditions: MDA-MB-231, 48 h, read-out: Activity
MDA-MB-468 = test: Growth inhibition of human MDA-MB-468 cells assessed as cell growth at 0.1 uM incubated for 48 hrs by sulforhodamine B assay relative to control; type: functional; conditions: MDA-MB-468, 48 h, read-out: Activity
MOLT-4 [4] = test: Growth inhibition of human MOLT4 cells assessed as cell growth at 1 uM incubated for 48 hrs by sulforhodamine B assay relative to control; type: functional; conditions: MOLT-4, 48 h, read-out: Activity
A549 = test: Growth inhibition of human A549/ATCC cells assessed as cell growth at 1 uM incubated for 48 hrs by sulforhodamine B assay relative to control; type: functional; conditions: A549, 48 h, read-out: Activity
SNB-75 = test: Growth inhibition of human SNB75 cells assessed as cell growth at 1 uM incubated for 48 hrs by sulforhodamine B assay relative to control; type: functional; conditions: SNB-75, 48 h, read-out: Activity
U-251 = test: Growth inhibition of human U251 cells assessed as cell growth at 1 uM incubated for 48 hrs by sulforhodamine B assay relative to control; type: functional; conditions: U-251, 48 h, read-out: Activity
LOX IMVI = test: Growth inhibition of human LOXIMVI cells assessed as cell growth at 1 uM incubated for 48 hrs by sulforhodamine B assay relative to control; type: functional; conditions: read-out: Activity
OVCAR-4 [5] = test: Growth inhibition of human OVCAR4 cells assessed as cell growth at 1 uM incubated for 48 hrs by sulforhodamine B assay relative to control; type: functional; conditions: OVCAR-4, 48 h, read-out: Activity
MCF7 = test: Growth inhibition of human MCF7 cells assessed as cell growth at 1 uM incubated for 48 hrs by sulforhodamine B assay relative to control; type: functional; conditions: MCF7, 48 h, read-out: Activity
MOLT-4 [6] = test: Growth inhibition of human MOLT4 cells assessed as cell growth at 100 uM incubated for 48 hrs by sulforhodamine B assay relative to control; type: functional; conditions: MOLT-4, 48 h, read-out: Activity
SR = test: Growth inhibition of human SR cells assessed as cell growth at 100 uM incubated for 48 hrs by sulforhodamine B assay relative to control; type: functional; conditions: read-out: Activity
NCI-H460 [7] = test: Growth inhibition of human NCI-H460 cells assessed as cell growth at 100 uM incubated for 48 hrs by sulforhodamine B assay relative to control; type: functional; conditions: NCI-H460, 48 h, read-out: Activity
HCC 2998 = test: Growth inhibition of human HCC2998 cells assessed as cell growth at 100 uM incubated for 48 hrs by sulforhodamine B assay relative to control; type: functional; conditions: HCC 2998, 48 h, read-out: Activity
HCT-15 = test: Growth inhibition of human HCT15 cells assessed as cell growth at 100 uM incubated for 48 hrs by sulforhodamine B assay relative to control; type: functional; conditions: HCT-15, 48 h, read-out: Activity
UACC-62 [8] = test: Growth inhibition of human UACC62 cells assessed as cell growth at 100 uM incubated for 48 hrs by sulforhodamine B assay relative to control; type: functional; conditions: UACC-62, 48 h, read-out: Activity
A498 = test: Growth inhibition of human A498 cells assessed as cell growth at 100 uM incubated for 48 hrs by sulforhodamine B assay relative to control; type: functional; conditions: A498, 48 h, read-out: Activity
[9] = read-out: LC50 (the source's name)
[10] = read-out: pLC50 (the source's name) (converted)

COc1cc(Cl)cc(-c2nn(-c3cccc(NC(=O)Nc4ccc(Cl)c(C(F)(F)F)c4)c3)cc2-c2ccncc2)c1
GI50 (CCRF-CEM; read-out: GI50): 0.613 µM
CC50 (CCRF-CEM; [9]): > 100 µM
TGI (CCRF-CEM; read-out: TGI): 35.5 µM
CC50 (CCRF-CEM; [10]): > 100 µM
GI50 (K562; read-out: GI50): 0.537 µM
LC50 (K562; read-out: LC50): 9.55 µM
TGI (K562; read-out: TGI): 10.1 µM
GI50 (K562; read-out: pGI50 (converted)): 5.37 µM
LC50 (K562; read-out: pLC50 (converted)): 95.5 µM
TGI (K562; read-out: pTGI (converted)): 10 µM
GI50 (NCI-H460 [1]; read-out: GI50): 0.77 µM
CC50 (NCI-H460 [1]; [9]): 4.48 µM
TGI (NCI-H460 [1]; read-out: TGI): 40 µM
CC50 (NCI-H460 [1]; [10]): 44.7 µM
GI50 (KM12; read-out: GI50): 0.555 µM
CC50 (KM12; [9]): 4 µM
TGI (KM12; read-out: TGI): 44.4 µM
GI50 (KM12; read-out: pGI50 (converted)): 0.55 µM
CC50 (KM12; [10]): 40.7 µM
TGI (KM12; read-out: pTGI (converted)): 4.47 µM
GI50 (Malme-3M; read-out: GI50): 1.21 µM
CC50 (Malme-3M; [9]): > 100 µM
TGI (Malme-3M; read-out: TGI): 85 µM
GI50 (Malme-3M; read-out: pGI50 (converted)): 1.7 µM
CC50 (Malme-3M; [10]): > 100 µM
TGI (Malme-3M; read-out: pTGI (converted)): 3.16 µM
IC50 (UACC-62 [2]): 1.27 µM
GI50 (UACC-62 [2]; read-out: GI50): 1.27 µM
CC50 (UACC-62 [2]; [9]): 9.51 µM
TGI (UACC-62 [2]; read-out: TGI): 35.4 µM
GI50 (UACC-62 [2]; read-out: pGI50 (converted)): 1.29 µM
CC50 (UACC-62 [2]; [10]): 9.77 µM
TGI (UACC-62 [2]; read-out: pTGI (converted)): 4.9 µM
IC50 (PC-3): 0.34 µM
GI50 (PC-3; read-out: GI50): 0.342 µM
CC50 (PC-3; [9]): > 100 µM
TGI (PC-3; read-out: TGI): 21.2 µM
GI50 (PC-3; read-out: pGI50 (converted)): 0.339 µM
CC50 (PC-3; [10]): > 100 µM
TGI (PC-3; read-out: pTGI (converted)): 2.14 µM
growth at 0.01 µM (OVCAR-4 [3]): 99%
growth at 0.1 µM (HL-60(TB)): 91%
growth at 0.1 µM (NCI-H226): 96%
growth at 0.1 µM (NCI-H522): 77%
growth at 0.1 µM (HT-29): 94%
growth at 0.1 µM (M14): 96%
growth at 0.1 µM (MDA-MB-231): 91%
growth at 0.1 µM (MDA-MB-468): 91%
growth at 1 µM (MOLT-4 [4]): 58%
growth at 1 µM (A549): 40%
growth at 1 µM (SNB-75): 68%
growth at 1 µM (U-251): 43%
growth at 1 µM (LOX IMVI): 61%
growth at 1 µM (OVCAR-4 [5]): 62%
growth at 1 µM (MCF7): 50%
growth at 100 µM (MOLT-4 [6]): -28%
growth at 100 µM (SR): -30%
growth at 100 µM (NCI-H460 [7]): -62%
growth at 100 µM (HCC 2998): -75%
growth at 100 µM (HCT-15): -90%
growth at 100 µM (UACC-62 [8]): -85%
growth at 100 µM (A498): -70%
